# Values joined by “and” are separate entries in the source; they are usually repeats but may differ in a detail not shown here. Identical values can stand only once. Like-named read-outs stand apart in the source and are kept apart here.
# Assays:
# SXA [1] = target: T1, SXA (Selenomonas ruminantium, UniProt O52575); test: biochemical
# Text: (§1) Concentrations of D-xylose produced versus time were fitted to lines for determination of initial rates. For determination of steady-state kinetic parameters, initial rates were fitted to Eq. 2 (competitive inhibition).
# SXA [2] = target: T1, SXA; test: biochemical; settings: read-out: Km^4NPX; 100 mM succinate-NaOH, pH 5.3, 25° C.
# [3] = target: Selenomonas ruminantium GA192 β-D-xylosidase (SXA, parent SEQ ID NO: 2) variant H248A (Pseudoselenomonas ruminantium, UniProt O52575, H248A); test: Steady-state kinetics of SXA mutant H248A with 4NPX
# Experimental: (§2) Site-directed mutagenesis was performed using the QuikChange site-directed mutagenesis kit (Stratagene) according the manufacturer's instructions. […] Complete sequences were determined on a 3700 sequencer (Applied Biosystems) using T7 promoter and specific primers to confirm that only the intended mutations had been introduced. Lasergene software (DNAStar) was used to analyze the sequence data. pSRA1 and its mutated plasmids were used for the transformation of E. coli BL21(DE3). Transformants were inoculated to 50 mL Luria-Bertani (LB) broth supplemented with 50 mg ampicillin/mL and the flask was shaken overnight at 250 rpm and 37° C. Twenty mL of the overnight culture were transferred to a 2.8-liter baffled flask containing 1.0 liter SOB medium [2.0% tryptone, 0.5% yeast extract, 0.05% NaCl, 0.0186% KCl (all in wt/vol) and 10 mM MgSO4] supplemented with 50 mg ampicillin/mL. The culture was shaken at 250 rpm and 37° C. […] Cells were harvested by centrifugation and cell pellets were stored at −80° C. until use.
# (§3) Initial purification steps and diafiltration steps were performed at 4° C. Chromatography was at room temperature (˜24° C.). Cells were thawed, suspended in 40 mL of 50 mM Tris-HCl, pH 7.5 (Buffer A) containing Complete protease inhibitor cocktail (Roche) and disrupted by sonication. […] The column was washed until absorbance at 280 nm of the eluate became minimal (˜200 mL) and developed with a 500-mL linear gradient (Buffer A+30% saturated ammonium sulfate to Buffer A).
# (§4) Two methods were employed for determining initial rates. […] Initial rates were calculated from fitting the absorbance readings versus time to a line (minimum of 4 points per reaction progression) and by using an extinction coefficient of 17.4 mM^−1 cm^−1. […] The concentration of 4NP substrates was determined by incubating the substrate with excess enzyme until an end point was reached, adding an aliquot (0.01 to 0.1 mL) to 0.1 M NaOH, recording the absorbance at 400 nm and using the extinction coefficient of 18.3 cm^−1mM^−1. […]
# [4] = target: Selenomonas ruminantium GA192 β-D-xylosidase (SXA, parent SEQ ID NO: 2) variant D14A (Pseudoselenomonas ruminantium, UniProt O52575, D14A); test: Steady-state kinetics of SXA mutant D14A with 4NP substrates
# Experimental: as §2
# (§5) Initial purification steps and diafiltration steps were performed at 4° C. Chromatography was at room temperature (˜24° C.). Cells were thawed, suspended in 40 mL of 50 mM Tris-HCl, pH 7.5 (Buffer A) containing Complete protease inhibitor cocktail (Roche) and disrupted by sonication. Following centrifugation, the supernatant was brought to 30% saturation with respect to ammonium sulfate and centrifuged. […] The column was washed until absorbance at 280 nm of the eluate became minimal (˜200 mL) and developed with a 500-mL linear gradient (Buffer A+30% saturated ammonium sulfate to Buffer A).
# (§6) Two methods were employed for determining initial rates. […] Initial rates were calculated from fitting the absorbance readings versus time to a line (minimum of 4 points per reaction progression) and by using an extinction coefficient of 17.4 mM^−1 cm^−1. […] The concentration of 4NP substrates was determined by incubating the substrate with excess enzyme until an end point was reached, adding an aliquot (0.01 to 0.1 mL) to 0.1 M NaOH, recording the absorbance at 400 nm and using the extinction coefficient of 18.3 cm^−1mM^−1. Unless indicated otherwise, for both Methods A and B, reactions were initiated by adding a small aliquot of enzyme (generally 7 μl of enzyme diluted into 10 mM sodium phosphate, pH 7.0, and incubated on wet ice or at ˜25° C.) to the 1-mL, temperature-equilibrated (25° C.) reaction mixtures. For pH studies, buffers of constant ionic strength (I=0.3 M), adjusted with NaCl, were used as indicated: 100 mM succinate-NaOH (pH 4.3-6), 100 mM sodium phosphate (pH 6-8), 30 mM sodium pyrophosphate (pH 8-9), glycine-NaOH (pH 9) and glycylglycine-NaOH (pH 9).
# [5] = target: T2, Selenomonas ruminantium GA192 β-D-xylosidase (SXA), wild type, SEQ ID NO: 2 (Pseudoselenomonas ruminantium, UniProt O52575); test: Steady-state kinetics of SXA with 4NPX2, A2 and X2-X6 by HPLC (Example 1); settings: for relative kcat value: A2 = 1
# Experimental: (§7) Samples (25 μL) were injected onto the column equilibrated with 0.1 M NaOH and developed with a 15-min linear gradient (0.1 M NaOH to 15 mM sodium acetate) at ˜25° C. and a flow rate of 1 mL min^−1.
# (§8) Before (time=0 min) and after (time=1-6 min) initiating reactions with enzyme (7 μL), samples (0.05-0.1 mL) were removed and quenched with an equal volume of 0.5 M acetic acid and frozen. Following lyophilization, samples were dissolved in H2O and analyzed by HPLC. […] Results from two replicate reactions were combined to provide data points for the progress curves.
# (§9) Before and after addition of enzyme (7 μL), 25-μl aliquots of the reaction mixtures were directly injected onto the HPLC column for quantification of product L-arabinose.
# Quenched samples were analyzed by HPLC for D-xylose. Initial rates were determined from linear regressions of [D-xylose] produced versus reaction time. […] Four 1-mL replicate reactions were conducted to supply data points for the progress curves. Two parallel reactions were conducted, under the same conditions with the same reaction components, the absorbance at 400 nm was continuously monitored (20 min) for 4NP production, and the absorbance values were converted to mM 4NP concentrations by using a delta extinction coefficient (product-substrate) of 8.22 mM^−1 cm^−1.
# [6] = target: Selenomonas ruminantium GA192 β-D-xylosidase (SXA, parent SEQ ID NO: 2) variant E186A (Pseudoselenomonas ruminantium, UniProt O52575, E186A); test: Steady-state kinetics of SXA mutant E186A with 4NP substrates
# Experimental: as §2, §5, §6
# [7] = target: T2, Selenomonas ruminantium GA192 β-D-xylosidase (SXA), wild type, SEQ ID NO: 2; test: Steady-state kinetics of SXA with 4NP-glycosides (Example 1, Methods A and B)
# Experimental: Kinetics with 4NP Substrates
# (§10) Two methods were employed for determining initial rates. […] Initial rates were calculated from fitting the absorbance readings versus time to a line (minimum of 4 points per reaction progression) and by using an extinction coefficient of 17.4 mM^−1 cm^−1. In Method B (continuous monitoring), temperature-equilibrated reactions (1 mL) were monitored at 380 nm (for pH values below 6) or 400 nm (for pH values of 6 and above). Reactions were generally monitored 0.3 min for initial rate determinations. Delta extinction coefficients (product-substrate) used for molar conversion were determined by subtracting the absorbance of substrate (at pH 5 so even very minor contaminating 4NP would not contribute) from the absorbance of 4NP for each reaction condition. […] The concentration of 4NP substrates was determined by incubating the substrate with excess enzyme until an end point was reached, adding an aliquot (0.01 to 0.1 mL) to 0.1 M NaOH, recording the absorbance at 400 nm and using the extinction coefficient of 18.3 cm^−1mM^−1. Unless indicated otherwise, for both Methods A and B, reactions were initiated by adding a small aliquot of enzyme (generally 7 μl of enzyme diluted into 10 mM sodium phosphate, pH 7.0, and incubated on wet ice or at ˜25° C.) to the 1-mL, temperature-equilibrated (25° C.) reaction mixtures. For pH studies, buffers of constant ionic strength (I=0.3 M), adjusted with NaCl, were used as indicated: 100 mM succinate-NaOH (pH 4.3-6), 100 mM sodium phosphate (pH 6-8), 30 mM sodium pyrophosphate (pH 8-9), glycine-NaOH (pH 9) and glycylglycine-NaOH (pH 9).
# [8] = target: Selenomonas ruminantium GA192 β-D-xylosidase (SXA, parent SEQ ID NO: 2) variant R290A (Pseudoselenomonas ruminantium, UniProt O52575, R290A); test: Steady-state kinetics of SXA mutant R290A with 4NPX
# Experimental: as §2, §5, §6
# SXA [9] = target: T1, SXA; settings: read-out: Km^4NPX; pH 5.3, 25° C., HPLC of D-xylose
# Text: as §1
# SXA [10] = target: T1, SXA; test: SXA-catalyzed hydrolysis of 4NP-glycoside substrates, initial rates (Methods A and B); format: biochemical;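 also: initial rates from 4-nitrophenol release, tracked by absorbance over roughly 0.3 min and converted using product-minus-substrate extinction differences, in 1 mL mixtures started by enzyme addition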
# Experimental: as §10
# [11] = target: T2, Selenomonas ruminantium GA192 β-D-xylosidase (SXA), wild type, SEQ ID NO: 2; test: Steady-state kinetics of SXA with X2-X6, improved quenching, HPLC (Example 3); settings: for factor by which kcat is higher than that of the Bacillus pumilus enzyme: SXA pH 5.3 vs B. pumilus pH 7.15, 25° C
# Experimental: (§11) Samples (25 μL) were injected onto the column equilibrated with 0.1 M NaOH and developed with a 5-min linear gradient (0.1 M NaOH to 33 mM sodium acetate) at ˜25° C. and a flow rate of 1 mL min^−1.
# (§12) Samples were kept on wet ice or the HPLC autosampler at 5° C. until analyzed by HPLC. Initial rates, calculated from linear regressions of the [D-xylose] produced versus time, were fitted to Eq. 1 to determine steady-state kinetic parameters.
# SXA [12] = target: T1, SXA; settings: for relative kcat values: pH 5.3 and 25° C., relative to A2
# Experimental: as §7, §8, §9
# [13] = target: Selenomonas ruminantium GA192 β-D-xylosidase (SXA, parent SEQ ID NO: 2) variant D127A (Pseudoselenomonas ruminantium, UniProt O52575, D127A); test: Steady-state kinetics of SXA mutant D127A with 4NPX
# Experimental: as §2, §3, §4
# [14] = target: T3, enzyme from Bacillus pumilus (Bacillus pumilus, UniProt P07129); settings: pH 7, 25° C.; cited from earlier work
# T3 sequence (P07129 1-535): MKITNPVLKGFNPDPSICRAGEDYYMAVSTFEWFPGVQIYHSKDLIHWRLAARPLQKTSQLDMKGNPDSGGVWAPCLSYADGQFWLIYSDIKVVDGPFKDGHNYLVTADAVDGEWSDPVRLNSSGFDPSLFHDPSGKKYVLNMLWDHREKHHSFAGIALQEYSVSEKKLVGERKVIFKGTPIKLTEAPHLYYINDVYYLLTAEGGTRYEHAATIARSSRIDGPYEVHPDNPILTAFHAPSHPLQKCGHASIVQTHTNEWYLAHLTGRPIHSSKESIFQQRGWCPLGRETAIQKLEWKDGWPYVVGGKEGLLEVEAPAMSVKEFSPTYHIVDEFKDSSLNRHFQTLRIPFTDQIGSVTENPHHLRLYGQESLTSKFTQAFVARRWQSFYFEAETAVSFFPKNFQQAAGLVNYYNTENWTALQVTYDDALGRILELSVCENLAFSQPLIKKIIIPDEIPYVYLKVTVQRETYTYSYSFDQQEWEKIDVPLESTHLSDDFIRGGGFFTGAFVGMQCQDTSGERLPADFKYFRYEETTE
# SXA [15] = target: T1, SXA
# Experimental: as §11, §12
# [16] = test system: Bacillus pumilus β-xylosidase; settings: pH 7, 25° C.; cited from earlier work
# [17] = 100 mM succinate-NaOH, pH 5.3, 25° C, Method A
# [18] = Exper. 1: succinate pH 5.3, Method A, η/ηo 1.00
# [19] = Exper. 1: succinate pH 5.3, Method A, η/ηo 6.12 (50% sucrose)
# [20] = Exper. 2: MES pH 6.00, Method B, η/ηo 1.00
# [21] = Exper. 2: MES pH 6.00, Method B, η/ηo 6.85 (50% sucrose)
# [22] = I=0.3 M, 25° C., Eq. 7 (4NPX), Eq. 5 (4NPA)
# [23] = same reaction conditions, pH 5.3, 25° C.
# [24] = 100 mM succinate-NaOH, pH 5.3, 25° C
structure (smiles),measurement,setting,value
"O=[N+]([O-])c1ccc(O)cc1 [4NP, 4-nitrophenol]",Ki,SXA [1],6.28 ± 0.55 mM
"O=[N+]([O-])c1ccc(O[C@@H]2OC[C@@H](O)[C@H](O)[C@H]2O)cc1 [4NPX, 4-nitrophenyl-β-D-xylopyranoside]",Km,SXA [2],716 ± 32 µM
same,kcat,[3]; [17],0.0950 ± 0.0025 s⁻¹
same,factor by which kcat is degraded vs wild type,"[3]; pH 5.3, 25° C.",330
same,kcat,[4]; [17],0.00954 ± 0.00016 s⁻¹
same,factor by which kcat is degraded vs wild type,"[4]; pH 5.3, 25° C.",3300
same,relative kcat value,"[5]; pH 5.3, 25° C",340
same,kcat,[6]; [17],0.00267 ± 0.00005 s⁻¹
same,factor by which kcat is degraded vs wild type,"[6]; pH 5.3, 25° C.",12000
same,kcat,"[7]; 100 mM MES-NaOH, pH 6.00, 25° C, Method B, 50% sucrose, η/ηo 6.85",30.1 ± 1.1 s⁻¹
same,kcat,"[7]; 100 mM MES-NaOH, pH 6.00, 25° C, Method B, η/ηo 1.00",32.9 ± 0.5 s⁻¹
same,kcat,"[7]; 100 mM succinate-NaOH, pH 5.3, 25° C, Method A, no sucrose",32.8 ± 0.6 s⁻¹ and 31.1 ± 0.4 s⁻¹
same,"affinity of dianionic SXA (D14^−E186^−), higher than that of monoanionic SXA (D14^−E186^H)",[7]; from pH dependence of 1/Km,~2 fold and 1.9 fold
same,kcat,"[7]; pH 5.3, 25° C, Method A, 50% sucrose, η/ηo 6.12",29.8 ± 0.5 s⁻¹
same,kcat Rel. to η/ηo = 1,"[7]; pH 5.3, η/ηo 6.12",0.910 ± 0.0152
same,kcat Rel. to η/ηo = 1,"[7]; pH 6.00, η/ηo 6.85",0.920 ± 0.040
same,pH-independent kcat,"[7]; pH profile, I=0.3 M, Method B",32.7±0.5 s^−1
same,kcat,"[8]; 100 mM succinate-NaOH, pH 5.3, 25° C, Method A, not well determined (highest 4NPX 5 mM)",0.0126 ± 0.0020 s⁻¹
same,factor by which kcat is degraded vs wild type,"[8]; pH 5.3, 25° C.",2500
same,increase of Km(4NPX) vs wild type,"[8]; pH 5.3, 25° C.",70 fold
same,Km,SXA [9],758 ± 59 µM
same,pH-independent kcat,SXA [10],32.7±0.5 s^−1
same,pH-independent kcat/Km,SXA [10],58.7±1.3 s^−1 mM^−1
same,Relative Rate,"SXA [10]; 5 mM 4NP glycoside, 100 mM succinate-NaOH, pH 5.3, 25° C., Method A, initial rate relative to 4NPX",1.00 ± 0.01
same,Km,"SXA [10]; 100 mM sodium phosphate, pH 7.0, 25° C., Method B",443 ± 8 µM
same,pH-independent 1/Km,"SXA [10]; 1/Km versus pH, Eq. 4 (4NPX), Eq. 5 (4NPA)",2.65±0.081 mM^−1
same,pKa of 1/Km versus pH (single protonatable group),SXA [10]; Eq. 4,5.6 and 5.56±0.08
same,Km,SXA [10]; [18],742 ± 41 µM
same,kcat Rel. to η/ηo = 1,SXA [10]; [18],1.00
same,Km,SXA [10]; [19],690 ± 35 µM
same,kcat Rel. to η/ηo = 1,SXA [10]; [19],0.910 ± 0.0152
same,Km,SXA [10]; [20],699 ± 35 µM
same,kcat Rel. to η/ηo = 1,SXA [10]; [20],1.00
same,Km,SXA [10]; [21],637 ± 81 µM
same,kcat Rel. to η/ηo = 1,SXA [10]; [21],0.920 ± 0.040
same,pKa1 of kcat versus pH,"SXA [10]; I=0.3 M, 25° C., Eq. 5",3.5 and ~3.6 and 3.54±0.10
same,pKa1 of kcat/Km versus pH,"SXA [10]; I=0.3 M, 25° C., Eq. 5",~5.0 and 5.00±0.04
same,pKa2 of kcat versus pH,"SXA [10]; I=0.3 M, 25° C., Eq. 5",6.9 and 6.90±0.03
same,pKa2 of kcat/Km versus pH,"SXA [10]; I=0.3 M, 25° C., Eq. 5",7.23±0.04
same,pKa1 of 1/Km versus pH,SXA [10]; [22],4.8 and 4.81±0.21
same,pKa2 of 1/Km versus pH,SXA [10]; [22],6.4 and 6.39±0.26
same,higher affinity of dianionic SXA (D14^−E186^−) than monoanionic SXA (D14^−E186^H),SXA [10]; from pH dependency of 1/Km,~2 fold and 1.9 fold
same,factor by which kcat of SXA is higher than that of the B. pumilus enzyme,"SXA [10]; substrate 4NPX, SXA pH 5.3, 25° C. (Example 1) vs B. pumilus pH 7.15, 25° C.",4
same,factor by which kcat is higher than that of the Bacillus pumilus enzyme,[11],4
same,relative kcat values,SXA [12],340
same,kcat,[13]; [17],0.000129 ± 0.000003 s⁻¹
same,factor by which kcat is degraded vs wild type,"[13]; pH 5.3, 25° C.",24000
"OC1OC[C@@H](O[C@@H]2OC[C@@H](O)[C@H](O)[C@H]2O)[C@H](O)[C@H]1O (stereo partly drawn) [X2, 1,4-β-D-Xylobiose]","kcat, Bacillus pumilus enzyme",[14],18 s⁻¹
same,pH-independent kcat,SXA [15],172±2
same,Km,"SXA [15]; 100 mM succinate-NaOH, pH 5.3, 25° C., improved quench (Example 3)",2060 ± 80 µM
same,pKa of kcat versus pH (single group),"SXA [15]; Eq. 5, I=0.3 M, 25° C.",7.57±0.03
same,pKa1 of kcat/Km versus pH,"SXA [15]; Eq. 6, I=0.3 M, 25° C.",4.86±0.06
same,pKa2 of kcat/Km versus pH,"SXA [15]; Eq. 6, I=0.3 M, 25° C.",7.01±0.05
same,pKa1 of 1/Km versus pH,"SXA [15]; Eq. 7, I=0.3 M, 25° C.",4.78±0.11
same,pKa2 of 1/Km versus pH,"SXA [15]; Eq. 7, I=0.3 M, 25° C.",7.03±0.17
same,factor by which kcat of SXA is higher than that of the Bacillus pumilus enzyme,"SXA [15]; SXA pH 5.3, 25° C. vs B. pumilus pH 7.15, 25° C.",10
same,lower affinity of dianionic SXA (D14^−E186^−) than monoanionic SXA (D14^−E186^H),SXA [15]; from pH dependencies of 1/Km,2.9 fold and 3 fold
same,pH-independent kcat/Km,"SXA [15]; kcat/Km versus pH, Eq. 6, I=0.3 M, 25° C. (FIG. 19)",123±5
same,kcat lower than previous determination (Example 1),"SXA [15]; pH 5.3, 25° C.",55%
same,kcat/Km lower than previous determination (Example 1),"SXA [15]; pH 5.3, 25° C.",9%
same,Km,"SXA [12]; 100 mM succinate-NaOH, pH 5.3, 25° C. (Example 1)",4200 µM
same,dissociation constant for the transition state,SXA [12]; assuming noncatalyzed rate similar to a-methylglucopyranoside,~10^−19
same,"time of peak height of intermediate product, observed","SXA [12]; hydrolysis of X4, pH 5.30, 25° C.",2940 s
same,"time of peak height of intermediate product, observed","SXA [12]; hydrolysis of X6, pH 5.30, 25° C.",13384 s
same,relative kcat values,SXA [12],5600
same,"kcat, fold larger than with 4NPX",SXA [12]; [23],12 fold and 13 fold
same,"kcat/Km, fold larger than with 4NPX",SXA [12]; [23],2 fold
"OC1OC[C@@H](O[C@@H]2OC[C@@H](O)[C@H](O)[C@H]2O)[C@H](O)[C@H]1O (stereo partly drawn) [X2, 1,4-β-D-xylobiose]",kcat,[5]; [24],412 s⁻¹ and 412 ± 18 s⁻¹
same,kcat,"[5]; pH 5.3, 25° C (Example 1), approximate",approximately 410 sec^−1
same,relative kcat value,"[5]; pH 5.3, 25° C",5600
same,kcat relative to that of substrates X3-X6,"[5]; pH 5.3, 25° C.",2-4 fold
same,kcat ratio X2 vs 4NPX,[5]; [23],12 fold and 13 fold
same,kcat,[16],18 s⁻¹
same,kcat,[11]; [24],185 ± 3 s⁻¹
same,factor by which kcat is higher than that of the Bacillus pumilus enzyme,[11],10
same,"affinity of dianionic SXA (D14^−E186^−), lower than that of monoanionic SXA (D14^−E186^H)",[11]; from pH dependence of 1/Km,2.9 fold and 3 fold
same,kcat,"[11]; pH 5.3, 25° C (improved technique), approximate",approximately 185 sec^−1
same,pH-independent kcat,"[11]; pH profile, I=0.3 M, 25° C",172±2
